These results are taken from patent US5593970A, “Heterocyclic anthracycline analogs” (priority 1994, dated 1997).

The subject of one assay is SKVLB. Put plainly: Microculture tetrazolium assay. In kind it is cell-based. The conditions noted are these: for VLB/OV3: IC50 ratio SKVLB/SKOV3; for IC50: SKVLB, read-out: IC50.
The subject of the next assay is LS180. In words: Soft agar colony formation disk diffusion assay. In kind it is cell-based, human. Put shortly:
(§1)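 Antiproliferative activity is scored as the distance from the filter disk to the first colonies in a soft agar clonogenic culture. Each solid-tumour line is plated on its own dish, with compound dissolved in DMSO and diluted in water before loading on the disk.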

For the next assay, the system named is MCF7/ADR. In words: Soft agar colony formation disk diffusion assay. In kind it is cell-based, human. Put shortly: as §1
The next assay concerns MCF7. In words: Soft agar colony formation disk diffusion assay. It is filed as cell-based, human. The gist of the method:
as §1
For orientation: Agar diffusion results depend on both activity and mobility in agar.

Take “3-(2-acetoxy-1-propeneketal)aceto-6-acetoxy-1-hydroxy-1,2,3,4-tetrahydro-(2-oxygen)naphtacene-5,12-dione and 3-(2-acetoxy-1-propeneketal)-aceto-11-acetoxy-1-hydroxy-1,2,3,4-tetrahydro-(2-oxygen)naphtacene-5,12-dione [BCH-710]”: the VLB/OV3 with SKVLB turned out to be 1.30. For the same molecule, in the assay with SKVLB, the IC50 (as a rule, the concentration that inhibits the measured activity by half) is 5.19 µM. Further, the zone of inhibition came out at 48.5 ± 26.1 Zone Units with LS180 (10 μg/DISK); 110.0 ± 50.2 Zone Units with LS180 (100 μg/DISK); 0 Zone Units in the assay on MCF7/ADR (10 μg/DISK); 106.0 ± 21.9 Zone Units in the assay on MCF7/ADR (100 μg/DISK); 0 Zone Units in the assay with MCF7 (10 μg/DISK); 24.0 ± 8.4 Zone Units in the assay on MCF7 (100 μg/DISK).

Consider “3-(2-hydroxy)aceto-6-hydroxy-1,2,3,4-tetrahydro-(2-oxygen)naphthacene-5,12-dione and 3-(2-hydroxy)aceto-11-hydroxy-1,2,3,4-tetrahydro-(2-oxygen)naphthacene-5,12-dione [BCH-694]”, for which the VLB/OV3 in the assay on SKVLB amounted to 2.18. The IC50 in the assay with SKVLB was determined as 17.9 µM. In addition, the zone of inhibition in the assay on LS180 (10 μg/DISK) came out at 48.8 ± 17.2 Zone Units; in the assay on LS180 (100 μg/DISK), 153.2 ± 1.0 Zone Units; in the assay with MCF7/ADR (10 μg/DISK), 0 Zone Units; in the assay with MCF7/ADR (100 μg/DISK), 161.5 ± 13.4 Zone Units; with MCF7 (10 μg/DISK), 61.0 ± 0.0 Zone Units; in the assay on MCF7 (100 μg/DISK) it was 149.4 ± 12.9 Zone Units.

On to “3-Carbomethoxy-1,11-dihydroxy-1,2,3,4-tetrahydro-(2-oxygen)naphthacene-5,12-dione 3-Carbomethoxy-1,6-dihydroxy-1,2,3,4-tetrahydro-(2-oxygen)naphthacene-5,12-dione [BCH-711]”, for which the VLB/OV3 in the assay with SKVLB is reported as 1.22. The IC50 in the assay with SKVLB is 13.5 µM. The zone of inhibition in the assay on LS180 (10 μg/DISK) turned out to be 18.0 ± 16.9 Zone Units; in the assay on LS180 (100 μg/DISK) it was 182.5 ± 43.1 Zone Units; in the assay with MCF7/ADR (10 μg/DISK), 24.4 ± 8.5 Zone Units; with MCF7/ADR (100 μg/DISK), 222.4 ± 159.2 Zone Units; in the assay on MCF7 (10 μg/DISK), 0 Zone Units; with MCF7 (100 μg/DISK), 244.0 ± 17.2 Zone Units.

For “3-carbomethoxy-6-hydroxy-1,2,3,4-tetrahydro-(2-sulfur)naphthacene-5,12-dione and 3-carbomethoxy-11-hydroxy-1,2,3,4-tetrahydro(2-sulfur)naphthacene-5,12-dione [BCH-693]”, in the assay on SKVLB, the VLB/OV3 turned out to be 1.06. Moreover, the concentration for half-maximal inhibition (IC50) in the assay on SKVLB came out at 44.2 µM. Moreover, the zone of inhibition in the assay on LS180 (10 μg/DISK) is 0 Zone Units; with LS180 (100 μg/DISK), 39.6 ± 4.3 Zone Units; with MCF7/ADR (10 μg/DISK), 24.4 ± 17.2 Zone Units; in the assay on MCF7/ADR (100 μg/DISK) it was 67.1 ± 25.8 Zone Units; in the assay with MCF7 (10 μg/DISK), 0 Zone Units; with MCF7 (100 μg/DISK) it was 67.1 ± 34.5 Zone Units.

As for `COC(=O)[C@H]1CC2=C(C(=O)c3c(cc4ccccc4c3O)C2=O)[C@H](O[C@H]2C[C@H](NC(=O)C(F)(F)F)[C@H](O)[C@H](C)O2)O1` (mixture of isomers) [BCH-692, (1'S,1S,3R) and (1'S,1R,3S) Methyl[11-hydroxy-1-(2',3',6'-trideoxy-3'-trifluoroacetamido-4'-hydroxy-L-lyxohexopyranose)-5,12-dioxo-3,4,5,12-tetrahydro-anthraceno[2,3-c]pyran-3-yl]formate], the VLB/OV3 with SKVLB turned out to be 0.62. In addition, the IC50 with SKVLB is 1.77 µM. Further, the zone of inhibition in the assay with LS180 (10 μg/DISK) stood at 130.0 ± 12.5 Zone Units; in the assay on LS180 (100 μg/DISK), 250.0 ± 8.4 Zone Units; in the assay with MCF7/ADR (10 μg/DISK) it was 122.0 ± 10.0 Zone Units; with MCF7/ADR (100 μg/DISK), 237.9 ± 8.6 Zone Units; with MCF7 (10 μg/DISK) it was 131.0 ± 12.7 Zone Units; in the assay with MCF7 (100 μg/DISK) it was 289.5 ± 22.0 Zone Units. In addition, the “cross resistance with adriamycin, MCF7/ADR vs MCF7” value (shortened to “cross resistance … MCF7/ADR vs MCF7”) with MCF7/ADR is listed as “lack of cross resistance with adriamycin”.

On to `CCOC(=O)C1CC2=C(CO1)C(=O)c1c(c(O)c3ccccc3c1OC(C)=O)C2=O` (stereo not shown) [BCH-654, Ethyl[11-acetoxy-6-hydroxy-5,12-dioxo-3,4,5,12-tetrahydroanthraceno(2,3-c)pyran-3-yl]formate], for which the VLB/OV3 in the assay on SKVLB worked out at 0.58. In addition, the IC50 in the assay on SKVLB worked out at 57.1 µM. Moreover, the zone of inhibition in the assay on LS180 (10 μg/DISK) was 24.4 ± 8.6 Zone Units; with LS180 (100 μg/DISK), 158.5 ± 9.1 Zone Units; in the assay on MCF7/ADR (10 μg/DISK) it was 0 Zone Units; with MCF7/ADR (100 μg/DISK), 155.6 ± 12.7 Zone Units; in the assay on MCF7 (10 μg/DISK) it was 0 Zone Units; with MCF7 (100 μg/DISK), 115.9 ± 8.6 Zone Units.

For the molecule `CCOC(=O)[C@H]1CC2=C(C(=O)c3cc4ccccc4c(O)c3C2=O)[C@H](O[C@H]2C[C@H](NC(=O)C(F)(F)F)[C@H](O)[C@H](C)O2)O1` [BCH-684, (1'S,1S,3R)Ethyl[6-hydroxy-5,12-dioxo-1-(3'-trifluoroacetamido-1-daunosaminyl)-3,4,5,12-tetrahydroanthraceno(2,3-C)pyran-3-yl]formate], the VLB/OV3 with SKVLB is 1.52. For the same molecule, the IC50 in the assay with SKVLB is 6.38 µM. In the assay with MCF7/ADR, the “cross resistance … MCF7/ADR vs MCF7” value is given as “more active in the adriamycin resistant cell line”. For the same molecule, the zone of inhibition was determined as 161.6 ± 30.1 Zone Units in the assay on MCF7/ADR (10 μg/DISK), 437.1 ± 30.1 Zone Units in the assay on MCF7/ADR (100 μg/DISK), 115.9 ± 8.6 Zone Units in the assay with MCF7 (10 μg/DISK) and 225.7 ± 25.8 Zone Units with MCF7 (100 μg/DISK).

Take `COC(=O)[C@@H]1CC2=C(C(=O)c3c(cc4ccccc4c3O)C2=O)[C@@H](O[C@H]2C[C@H](NC(=O)C(F)(F)F)[C@H](O)[C@H](C)O2)O1` [BCH-691, (1'S,1R,3S)-Methyl-{11-hydroxy-1-(2',3',6'-trideoxy-3'-trifluoroacetamido-4'-hydroxy-L-lyxoheoxpyranose)-5,12-dioxo-3,4,5,12-tetrahydroanthraceno[2,3-c]pyran-3-yl}formate]: the VLB/OV3 in the assay with SKVLB stood at 1.11. For the same molecule, the IC50 in the assay on SKVLB was found to be 1.41 µM. The zone of inhibition stood at 148.5 ± 4.9 Zone Units with LS180 (10 μg/DISK); 287.0 ± 80.3 Zone Units in the assay with LS180 (100 μg/DISK); 115.5 ± 9.1 Zone Units with MCF7/ADR (10 μg/DISK); 213.5 ± 43.1 Zone Units in the assay with MCF7/ADR (100 μg/DISK); 186.5 ± 4.9 Zone Units in the assay on MCF7 (10 μg/DISK); 417.5 ± 99.7 Zone Units with MCF7 (100 μg/DISK).

For `CC(=O)Oc1c2c(c(O)c3ccccc13)C(=O)C1=C(C2=O)C(O)OC(C(C)=O)C1` (stereo not shown) [BCH-704, Methyl(11-acetoxy-1,6-dihydroxy-5,12-dioxo-3,4,5,12-tetrahydroanthraceno[2,3-c]pyran-3-yl)ketone], in the assay with SKVLB, the VLB/OV3 stood at 0.84. Moreover, the IC50 in the assay with SKVLB is 13.8 µM. The zone of inhibition in the assay with LS180 (10 μg/DISK) was 38.3 ± 2.4 Zone Units; in the assay on LS180 (100 μg/DISK) it was 131.1 ± 31.1 Zone Units; in the assay with MCF7/ADR (10 μg/DISK), 122.0 ± 25.8 Zone Units; with MCF7/ADR (100 μg/DISK), 323.0 ± 16.8 Zone Units; in the assay with MCF7 (10 μg/DISK), 183.0 ± 10.8 Zone Units; in the assay with MCF7 (100 μg/DISK), 320.5 ± 21.5 Zone Units.

Turning to `C=CC1CC2=C(C(=O)c3cc4ccccc4c(O)c3C2=O)C(OC)O1` (stereo not shown) [BCH-712, 6-hydroxy-1-methoxy-1,2,3,4-tetrahydro-3-vinyl-(2-oxygen) naphthacene-5,12-dione], the zone of inhibition with LS180 (10 μg/DISK) is 9.0 ± 4.2 Zone Units; in the assay on LS180 (100 μg/DISK), 158.0 ± 34.6 Zone Units; with MCF7/ADR (10 μg/DISK) it was 24.0 ± 8.4 Zone Units; with MCF7/ADR (100 μg/DISK), 79.0 ± 8.4 Zone Units; in the assay on MCF7 (10 μg/DISK) it was 0 Zone Units; in the assay with MCF7 (100 μg/DISK) it was 54.5 ± 9.1 Zone Units. Moreover, the “cross resistance … MCF7/ADR vs MCF7” value with MCF7/ADR is “more active in the adriamycin resistant cell line”.

Take `CCOC(=O)C1Cc2c(c(OC)c3c(c2OC)C(=O)c2ccccc2C3=O)CS1` (stereo not shown) [BCH-717]: in the assay on SKVLB, the IC50 was more than 100 µM. Also, the zone of inhibition with LS180 (10 μg/DISK) is 0 Zone Units; in the assay with LS180 (100 μg/DISK), 61.0 ± 0.0 Zone Units; in the assay with MCF7/ADR (10 μg/DISK) it was 0 Zone Units; in the assay on MCF7/ADR (100 μg/DISK) it was 0 Zone Units; with MCF7 (10 μg/DISK) it was 0 Zone Units; with MCF7 (100 μg/DISK) it was 0 Zone Units.

Take `CC(=O)Oc1c2c(c(O)c3ccccc13)C(=O)C1=C(CC(C(C)=O)OC1)C2=O` (stereo not shown) [BCH-721]: the VLB/OV3 in the assay on SKVLB came to 0.55. For the same molecule, the IC50 in the assay with SKVLB amounted to 30.7 µM. In addition, the zone of inhibition in the assay on LS180 (10 μg/DISK) turned out to be 18.9 Zone Units; in the assay on LS180 (100 μg/DISK) it was 122.0 ± 0.0 Zone Units; with MCF7/ADR (10 μg/DISK), 91.0 ± 86.2 Zone Units; in the assay with MCF7/ADR (100 μg/DISK), 183.0 ± 86.2 Zone Units; in the assay with MCF7 (10 μg/DISK), 55.0 ± 8.4 Zone Units; in the assay with MCF7 (100 μg/DISK), 167.0 ± 21.9 Zone Units.
